Test results reported in patent US20200338125A1, “METHOD FOR EXPANSION OF LYMPHOCYTES” (LUDWIG INSTITUTE FOR CANCER RESEARCH LTD, priority 2017, published 2020).

Tested on: TILs of patient CTE-0009
Assay: IFNγ-ELISPOT of TILs from draining lymph nodes, patient CTE-0009
Format: cell-based, human
Conditions: FIG. 5; day 14; conventional and primed cultures from draining lymph nodes
Protocol: Both “conventional” and “primed” TILs of patient CTE-0009 were generated from a single cell suspension of draining lymph nodes, following the methods described herein. Each culture was interrogated at day 14 by IFNγ-ELISPOT for the presence of neo-antigen T cell reactivities directed against one of the 4 predicted peptides and against the corresponding wild-type (wt) peptides. […] PHA was used at 1 μg/ml.
T cell reactivity against predicted neo-antigens was tested by IFNγ ELISpot on pre-REP TILs. Positivity was confirmed in ≥2 independent experiments.

With TPINPRRCL [wt] the “neo-antigen T cell reactivities directed against the peptide” value was “not”.
